The record followed here is patent US20240350432A1, “CENTRAL NERVOUS SYSTEM MODULATORS AS COVID-19 THERAPEUTICS” (priority 2023, published 2024).

Entries after “also recorded” stand apart in the source; their conditions may differ.

Holding throughout (assay type): in vivo, mice
The subject of one assay is GFAP. In words: GFAP immunofluorescence (reactive astrocytes), mean FL intensity. The note with it: for mean GFAP FL intensity with progression of COVID-19 infection (time post-inoculation): COVID-19 positive groups, 3, 6, 10 days.
For a further assay, the system named is pons and medulla. In words: Cresyl violet staining, semi-qualitative morphology ranking. The note with it: COVID-19 positive; for cresyl violet morphological rank vs (−) control: rank 1-3.
The test system of a further assay is IBA1. In words: IBA1 immunofluorescence (microglia), mean FL intensity. The note with it: for mean IBA1 FL intensity with progression of COVID-19 infection (time post-inoculation): COVID-19 positive groups, 3, 6, 10 days.
The test system of assay [1] is myelin of the pons and medulla. Briefly: Black-Gold II Myelin staining, semi-qualitative myelination ranking.
[2] abbreviates: COVID-19 positive, 3 days post-inoculation.
Setting [3] is: COVID-19 positive, 6 days post-inoculation.

In the case of `CC12CC3CC(C)(C1)CC(N)(C3)C2` [memantine], the “GFAP FL intensity nonlinear fit over time, Best Fit” value in the assay on GFAP (COVID-19 positive groups) was “Horizontal Line”. Moreover, the “mean GFAP FL intensity with progression of COVID-19 infection (time post-inoculation)” value in the assay on GFAP was “no change; also recorded: increasing time point was not associated with increasing mean GFAP FL intensity”. In addition, the “cresyl violet morphological rank vs (−) control” value in the assay with pons and medulla (6 days post-inoculation) is reported as “significantly lower than the negative control”; in the assay on pons and medulla (10 days post-inoculation) it was “morphology rankings similar to the negative control groups; also recorded: no longer a difference in morphological rank”. In addition, the “cresyl violet morphological rank vs saline treatment” value with pons and medulla (10 days post-inoculation) is reported as “improve the morphological rank”. Further, the “IBA1 FL intensity nonlinear fit over time, Best Fit” value with IBA1 (COVID-19 positive groups) is listed as “Horizonal Line”. The “mean IBA1 FL intensity with progression of COVID-19 infection (time post-inoculation)” value in the assay with IBA1 is recorded as “increasing time point was not associated with decreasing mean IBA1 FL intensity; also recorded: no change”. Also, the “FL intensity vs saline and ifenprodil treated groups (FIG. 6B)” value in the assay with IBA1 (setting [2]) was “decreased expression of GFAP; also recorded: slightly lower”. The “mean IBA1 FL intensity, COVID-19 positive vs negative group of same treatment” value with IBA1 (sacrificed 10 days post-virus inoculation) is on record as “significantly decreased; also recorded: slightly lower”. Also, the “Black-Gold II myelination ranking” value in assay [1] (setting [2]) and in assay [1] (setting [3]) was “decreased myelination rankings” in each case. In assay [1] (COVID-19 positive, 10 days post-inoculation), the “Black-Gold II myelination ranking vs (−) control” value was “not significantly different”. Further, in assay [1] (respiratory centers of the brain, listed as Memantine), the “COVID-19 related changes in myelination, overall finding” value is listed as “signs of demyelination”.

In the case of `CC(C(O)c1ccc(O)cc1)N1CCC(Cc2ccccc2)CC1` (stereo not shown) [ifenprodil], in the assay with GFAP, the “mean GFAP FL intensity with progression of COVID-19 infection (time post-inoculation)” value is reported as “significantly changed”. Also, the “preventative effect in COVID-19 induced neuroinflammation (GFAP and IBA1 FL intensity trends)” value in the assay with GFAP (respiratory centers of the brain) is reported as “did not have a preventative effect”. Also, the “cresyl violet morphological rank vs (−) control” value in the assay with pons and medulla (3 days post-inoculation) was “no difference in morphological rank”; in the assay with pons and medulla (6 days post-inoculation), “increase in rankings”. Further, the “cresyl violet morphological rank vs saline treatment” value with pons and medulla (6 days post-inoculation) is recorded as “increases morphological rank”; in the assay with pons and medulla (10 days post-inoculation), “improve the morphological rank”. For the same molecule, in the assay with IBA1, the “mean IBA1 FL intensity with progression of COVID-19 infection (time post-inoculation)” value was “significantly changed”. In addition, in assay [1] (setting [3]), the “Black-Gold II myelination ranking” value is on record as “increased myelination ranking”. For the same molecule, the “Black-Gold II myelination ranking across time points post-inoculation” value in assay [1] (regardless of COVID-19 status) is recorded as “no differences; also recorded: no significant difference”.
